# Data as given in patent US20260076986A1 (priority 2022, published 2026).
# How the values were obtained:
# [1] = cited from earlier work
# animals = conditions: 20-40 mg/kg/day over 3 to 4 months; cited from earlier work
# transgenic AD mice = conditions: cited from earlier work
# [2] = system: glutathione reductase and superoxide desmutases; conditions: periods of days to weeks; cited from earlier work
# [3] = capsules or different food sources; cited from earlier work
# [4] = nine phase 1 studies; cited from earlier work
# [5] = system: mild and moderate AD patients; conditions: cited from earlier work
# [6] = system: Alzheimer transgenic mouse model; conditions: cited from earlier work
# [7] = clinical safety review of scyllo-inositol (ELND005) studies; assay type: in vivo, human; conditions: clinical studies of up to 2.5 years
# Procedure: In the completed studies, […] have been exposed to at least a single dose of ELND005 (161 unique healthy subjects in Phase 1 studies, 306 unique patients in Phase 2 studies). The 306 Mild and Moderate AD patients were treated with ELND005 doses of up to 2000 mg BID. In the completed Phase 2 studies, the duration of treatment was up to 2.5 years with the 250-mg BID dose. The Phase 2 AD studies provided a total of 370.2 patient-years of exposure at any dose. At the dose of 250 mg BID, there have been a total of 154.8 patient-years of exposure in AD patients.
# Of the 161 healthy subjects who received ELND005 in Phase 1 studies, 87 were between the ages of 18 and 54 years (inclusive) and 74 were between ages of 55 and 81 years (inclusive). The dose range was 70 to 7000 mg in single-dose studies and 200 to 3000 mg BID in multiple-dose studies for up to 10 days. Patients with AD were treated with 250 mg BID to 2000 mg BID.
# neurons = conditions: cited from earlier work
# [8] = system: mild and moderate AD patients; experiment: phase 2 study of scyllo-inositol 250 mg BID in mild and moderate AD patients over 78 weeks; assay type: in vivo, human
# Source text: The inclusion of mild AD patients with an MMSE score of 20 and 21 was sufficient to mask the efficacy observed in mild AD patients with an MMSE from 22-26.
# Scyllo-inositol is a drug that, in oral form, crosses the blood-brain barrier to achieve low mM levels in the blood. […] See McLaurin, J. et. al., J Mol. Biol. (1998): 183-194. […] The population of AD patients in the study was mild to moderate Alzheimer's disease having MMSE of 16-26. […] See Salloway, et al. Neurology 2011; 77:1253-1262.
# A randomized, double blind placebo-controlled study phase 2 study explored the safety and efficacy of 250 mg BID administered to mild and moderate AD patients over 78 weeks. One of the primary endpoints used to measure changes in cognition was the Neuropsychological Test Battery (NTB) as well as measuring the levels of biomarkers in the CSF such as Amyloid beta 42 and phosphorylated Tau. The primary analysis compared 250 mg BID […] and placebo (n=82) in mild to moderate patients, and an additional pre-specified analysis was performed in the placebo and treated mild AD patients. […] Similar trends were also observed in other cognition and function tests such CSR-SoB and ADCS-ADL.
# rats = conditions: rat, in vivo, 6 months
# [9] = scyllo-inositol levels in CSF of AD patients; assay type: in vivo, human; conditions: 250 mg BID
# amyloid beta = target: T1, amyloid beta (Homo sapiens, UniProt P05067); experiment: in vitro formation and breakdown of amyloid beta oligomers, aggregates and fibrils; assay type: biochemical; conditions: approximately
# T1 construct: cleaved by alpha and beta secretases, producing free amyloid beta peptide
# T1 sequence (P05067 672-713 limits assumed): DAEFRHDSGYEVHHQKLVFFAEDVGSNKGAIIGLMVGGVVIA
# Source text: Scyllo-inositol is a natural sugar found in many nutrients, including coconut, carrots, grapes and citrus fruits.
# Thus, our target concentration in the CSF (which we assume to be similar to the interstitial fluid in the brain) is approximately 2-5 ugm/ml.
# hippocampal slices = conditions: infusion in rat brain, toxic amyloid beta oligomers; cited from earlier work
smiles,measurement,setting,value
"O=c1cc(-c2ccc(O)cc2)oc2cc(O)cc(O)c12 [apigenin, 4′,5,7-trihydroxyflavone]",water solubility,[1],reduced water solubility
same,adverse events,animals,No adverse events
same,amyloid beta half life,"transgenic AD mice; Transgenic AD mice, not observed with deleted Aquaporin 4 gene",significantly reduced
same,efficacy dose observed in animal models,transgenic AD mice; approximately,20 to 40 mg/kg/day
same,increase of clearance of amyloid beta in the brain,"transgenic AD mice; mouse, in vivo",30-40%
same,aquaporin channels on perivascular astrocytes,transgenic AD mice; transgenic AD mice,increased the expression and localization
same,cognition,transgenic AD mice; transgenic AD mice,reversed the loss in cognition to normal levels
same,reduction of amyloid beta 42 burden,transgenic AD mice; transgenic mouse model,20-30%
same,level of apigenin resulting in elevated glutathione reductase and superoxide desmutases,[2],3.5-4.5 mgs per day
same,adverse events,[3],No signs of adverse events
O[C@H]1[C@H](O)[C@@H](O)[C@H](O)[C@@H](O)[C@@H]1O [scyllo-inositol],dose safe and no pathologies,"dogs; dog, in vivo, 12 months",300 mg/kg/day
same,adverse events,"dogs; dogs, 2000 mg/kg/day for 12 months, skin inflammation, gingivitis and pneumonia",some mild adverse events
same,blood brain barrier passage,[4],crosses the blood brain barrier
same,plasma levels versus dose,[4],dose proportional increase
same,subgroup analysis versus placebo,"[5]; MMSE 23-26, 250 mg BID",did not achieve statistical significance
same,primary endpoints NTB and/or ADCS-ADL versus placebo,"[5]; full analysis set, 250 mg BID, 78 weeks, MMSE 16-26",no statistical significance
same,"efficacy on NTB, CDR-SoB, ADCS-ADL and ADAS-Cog","[5]; mild and moderate AD patients, overall population",failed to show efficacy
same,"primary endpoints NTB and ADCS-ADL, preventing decline versus placebo","[5]; per-protocol sets, 250 mg BID, 78 weeks",no statistically significant different
same,reduction of amyloid beta 42 in the brain,[6]; 10 mg/kg and 30 mg/kg,20-30%
same,reduction of number of plaques,[6]; 10 mg/kg and 30 mg/kg,25-50%
same,cognition in Morris Water maze test,[6]; oral treatment,comparable to normal animals
same,dose considered safe for long-term use,[7],250 mg BID
same,amyloid beta binding to neurons and neurotoxicity,neurons,prevent amyloid beta binding to neurons and reduced neurotoxicity
same,efficacy on cognition and function by MMSE subgroup,[8]; mild AD patients with MMSE score of 22-26,more pronounced
same,NTB score,"[8]; mild AD patients, 250 mg BID",very strong signal in improvement
same,parameters measured in the NTB that showed improvement,"[8]; mild AD patients, 250 mg BID",7 of the 9
same,changes in cognition,"[8]; mild to moderate patient population, 250 mg BID",not statistically significant
same,dose safe with no observed pathologies,rats,up to 2500 mg/kg/day
same,average scyllo-inositol levels in CSF,[9],15 µg/mL
same,concentration sufficient to prevent formation of oligomers and break down amyloid beta aggregates and fibrils,amyloid beta,2-5 ugms/ml
same,long term potentiation,hippocampal slices,restores long term potentiation
